Structures can show the parent of a compound that is named as a salt. Where two headings read alike, the source gives them in different places.
Tests used:
[1] = target: T1, glycine binding pocket of the NMDA receptor (Rattus norvegicus, UniProt P35439); experiment: [3H]MDL-105,519 displacement studies (rat cortical membranes)
T1 construct: For isolation of the cell membranes, the cortices are homogenized; from tissue; host or cells: rat cerebral cortex membranes (male Sprague-Dawley)
Method: Anaesthetised male Sprague-Dawley rats (200-250 g, Janvier, Le Genest-Isle, France) are decapitated and their brains removed rapidly. […] For isolation of the cell membranes, the cortices are homogenized in 20 volumes of ice-cold 0.32 M sucrose (Sigma-Aldrich, Taufkirchen, Germany) using a glass-Teflon homogenizer. The homogenate is centrifuged at 1000×g for 10 minutes, the pellet is discarded and the supernatant centrifuged at 20,000×g for 20 minutes. The resulting pellet is re-suspended in 20 volumes of distilled water and centrifuged for 20 minutes at 8000×g. The supernatant and the buffy coat are then centrifuged three times (48,000×g for 20 minutes) in the presence of 50 mM Tris-HCl, pH 8.0 (assay buffer). All centrifugation steps are carried out at 4° C. After resuspension in 5 volumes of 50 mM Tris-HCl, pH 7.5, the membrane suspension is frozen rapidly at −80° C. On the day of assay, the membranes are thawed and washed four times by resuspension in 50 mM Tris-HCl, pH 7.5, and centrifugation at 48,000×g for 20 minutes. The final pellet is suspended in assay buffer. […] The final protein concentration used for our studies is 400 μg/ml.
A robotic system designed for binding assays (Tecan Deutschland GmbH, Crailsheim, Germany) is loaded with the membrane solution, solutions for bound control (buffer/DMSO 20%), unlabeled glycine (1 mM) for evaluation of non-specific binding, all compounds to be tested (at 20-fold concentrations), radioligand and respective 96-well plates.
The protein/receptor concentration is held constant whereas the amount of specific bound radioligand is determined using increasing concentrations of ligand.
Firstly, the assay plates are loaded with membrane solution and are shaken at 4° C. The mother plates are then prepared by pipetting the compounds into assay buffer/20% DMSO to obtain the desired final concentrations (dose response curve with five different concentrations, e.g. 10, 3, 1, 0.3, and 0.1 μM). After transferring radioligand into the assay plates, the compounds are added (including the bound and the non-specific binding control). The final DMSO concentration is 1%. The assay plates are incubated and shaken at 4° C. for 1 h, before the mixture is exhausted as rapidly as possible via a vacuum manifold using the Multiscreen HTS glass fibre (type B) filter plates (Millipore, Schwalbach, Germany) under a constant vacuum of 450 mbar. The membranes are washed four times with cold assay buffer ([…]). 50 μL of Ultima Gold scintillation cocktail (PerkinElmer, Rodgau-Jügesheim, Germany) is added to the wet filter plates and incubated at room temperature overnight before counting the disintegration per minutes using a liquid scintillation counter (MicroBeta, PerkinElmer, Rodgau-Jügesheim, Germany).
The residual radioactivity after displacement of the test compound (n=5) is then corrected with respect to the set controls.

[2] = target: NMDA receptor glycine B site (Rattus norvegicus, UniProt P35439); experiment: Calcium FLIPR studies, rat cortical neurons (NMDA/D-Serine induced intracellular calcium); assay type: cell-based; set-up: Primary neurons are prepared from cortices of embryonal rats at day 17 of pregnancy; endogenous in cells; host or cells: primary rat cortical neurons (E17, 11-13 DIV)
Method: Antagonistic potencies of the test compounds are functionally evaluated using electrophysiological whole cell patch-clamp recordings and/or fluorometric intracellular Ca^2+-imaging (FLIPR) screens.
Sprague-Dawley rat embryos (E 17) are decapitated and neocortices are dissected, trypsinized and carefully triturated. The cell suspension is plated on poly-D-lysine pre-coated 96-well Plates (Greiner, Frickenhausen, Germany) at a cell density of 55.000 cells/well. The neurons are cultivated in Neurobasal media containing B27-Supplement and […] L-Glutamine (Biochrom) at 37° C. in a humidified atmosphere of 5% CO2/95% air. Medium is exchanged completely at day 4 and to 50% on day 7. At the time of experiments neurons are 11-13 days in vitro.
The increase of intracellular calcium after stimulation with 30 μM NMDA and 1 μM D-Serine is measured using the fluorometric imaging plate reader (FLIPR) and the Calcium-4-Kit (both Molecular Devices, Ismaning, Germany). Prior to addition of agonist or antagonist (5 different concentrations, n=5) the medium is aspirated and cells are washed once before loading with 150 μL of loading buffer (1 h at room temperature), consisting of Ca-4 sensitive dye reconstituted in extracellular bath solution, pH 7.3. Subsequently, plates are transferred to FLIPR to detect increases in intracellular calcium after the addition of agonist, measured as relative fluorescence units (RFU). Antagonists are pre-incubated with the cells for 10 min at room temperature before the addition of the agonist and co-agonist.
The fluorescence signal increase after addition of agonist reflects the increase of intracellular calcium. Inconsistencies in the amount of cells per well are normalised by using the spatial uniformity correction of the FLIPR software (Screenworks, Molecular Devices). The mean of replicated temporal data (n=5) is calculated and used for graphical representation. For the evaluation of the antagonistic potency, the calcium changes in response to different concentrations of antagonist are determined using an area under the curve (AUC) calculation. All responses (RFU-values) are determined as percentage of control (=maximum response at 30 μM NMDA and 1 μM D-Serine). IC50 values are calculated according the four parameter logistic equation using GraFit (Erithacus Software).

[3] = displacement of 2 nM [3H]-MDL-105,519, rat cortical membranes, read-out: NMDA-MDL 105519-r-CTX - IC50
[4] = rat cortical neurons, stimulation with 30 μM NMDA and 1 μM D-Serine, antagonist pre-incubated 10 min, read-out: NMDA-FLIPR-rCTX-NAM - IC50

SMILES	melting point	IC50 [1, 3] [µM]	IC50 [2, 4] [µM]	further results
COCC(Oc1cc(C(=O)O)cc2cc(Cl)cc(Cl)c12)C(=O)Nc1ccccc1 (stereo not shown) [Example 67, 5,7-Dichloro-4-(2-methoxy-1-phenylcarbamoyl-ethoxy)-naphthalene-2-carboxylic acid]		1.37	6.49	
CC(Oc1cc(C(=O)O)cc2cc(Cl)cc(Cl)c12)C(=O)Nc1ccccc1CO (stereo not shown) [Example 17, 5,7-Dichloro-4-[1-(2-hydroxymethylphenylcarbamoyl)-ethoxy]-naphthalene-2-carboxylic acid]				IC50 [1]: 1.19 µM; IC50 [2]: 12.6 µM
CC(Oc1cc(C(=O)O)cc2cc(Cl)cc(Cl)c12)C(=O)Nc1cccc(CO)c1 (stereo not shown) [Example 25, 5,7-Dichloro-4-[1-(3-hydroxymethylphenylcarbamoyl)-ethoxy]-naphthalene-2-carboxylic acid]		1.03	7.32	
O=C(O)COc1cccc(NC(=O)COc2cc(C(=O)O)cc3cc(Cl)cc(Cl)c23)c1 [Example 2, 4-[(3-Carboxymethoxyphenylcarbamoyl)-methoxy]-5,7-dichloronaphthalene-2-carboxylic acid]		0.414	3.17	
O=C(COc1cc(C(=O)O)cc2cc(Cl)cc(Cl)c12)Nc1nnn[nH]1 [Example 64, 5,7-Dichloro-4-[(1H-tetrazol-5-ylcarbamoyl)-methoxy]-naphthalene-2-carboxylic acid]		1.26	9.28	
CNC(=O)COc1cc(CN)ccc1NC(=O)COc1cc(C(=O)O)cc2cc(Cl)cc(Cl)c12 (as salt: hydrochloride) [Example 116, 4-[(4-Aminomethyl-2-methylcarbamoylmethoxy-phenylcarbamoyl)-methoxy]-5,7-dichloro-naphthalene-2-carboxylic acid]	233 to 235 °C			
CN(C(=O)COc1cc(C(=O)O)cc2cc(Cl)cc(Cl)c12)c1cccc(C(=O)O)c1 [Example 31, 4-{[(3-Carboxyphenyl)-methylcarbamoyl]-methoxy}-5,7-dichloronaphthalene-2-carboxylic acid]		1.09	4.75	
O=C(COc1cc(C(=O)O)cc2cc(Cl)cc(Cl)c12)NC(C(=O)O)c1ccccc1 (stereo not shown) [Example 27, 4-{[(Carboxyphenylmethyl)-carbamoyl]-methoxy}-5,7-dichloronaphthalene-2-carboxylic acid]		0.79	3.5	
CC(C)(Oc1ccccc1NC(=O)COc1cc(C(=O)O)cc2cc(Cl)cc(Cl)c12)C(=O)O [Example 81, 4-{[2-(1-Carboxy-1-methyl-ethoxy)-phenylcarbamoyl]-methoxy}-5,7-dichloro-naphthalene-2-carboxylic acid]		1.19	11.3	
O=C(COc1cc(C(=O)O)cc2cc(Cl)cc(Cl)c12)NCc1ccncc1 [Example 105, 5,7-Dichloro-4-{[(pyridin-4-ylmethyl)-carbamoyl]-methoxy}-naphthalene-2-carboxylic acid]		1.03	7.09	
O=C(COc1cc(C(=O)O)cc2cc(Cl)cc(Cl)c12)Nc1ccc(Cc2nnn[nH]2)cc1 [Example 86, 5,7-Dichloro-4-{[4-(1H-tetrazol-5-ylmethyl)-phenylcarbamoyl]-methoxy}-naphthalene-2-carboxylic acid]		1.84	5.75	

More lines, main results first:

melting point	IC50 [1, 3] [µM]	IC50 [2, 4] [µM]	SMILES	further results
> 250 °C			Cc1nc(NC(=O)COc2cc(C(=O)O)cc3cc(Cl)cc(Cl)c23)sc1C [Example 135, 5,7-Dichloro-4-[(4,5-dimethyl-thiazol-2-ylcarbamoyl)-methoxy]-naphthalene-2-carboxylic acid]	
> 236 °C (dec.)			O=C(COc1cc(C(=O)O)cc2cc(Cl)cc(Cl)c12)NCc1ccc(OCc2nnn[nH]2)cc1 [Example 126, 5,7-Dichloro-4-{[4-(1H-tetrazol-5-ylmethoxy)-benzylcarbamoyl]-methoxy}-naphthalene-2-carboxylic acid]	
239 to 240 °C			O=C(COc1cc(C(=O)O)cc2cc(Cl)cc(Cl)c12)NCc1ccccc1Cc1nnn[nH]1 [Example 118, 5,7-Dichloro-4-{[2-(1H-tetrazol-5-ylmethyl)-benzylcarbamoyl]-methoxy}-naphthalene-2-carboxylic acid]	
> 250 °C			Cc1cnc(NC(=O)COc2cc(C(=O)O)cc3cc(Cl)cc(Cl)c23)s1 [Example 133, 5,7-Dichloro-4-[(5-methyl-thiazol-2-ylcarbamoyl)-methoxy]-naphthalene-2-carboxylic acid]	
244 to 245 °C			O=C(O)COc1cc(CO)ccc1NC(=O)COc1cc(C(=O)O)cc2cc(Cl)cc(Cl)c12 [Example 122, 4-[(2-Carboxymethoxy-4-hydroxymethyl-phenylcarbamoyl)-methoxy]-5,7-dichloro-naphthalene-2-carboxylic acid]	
242 to 243 °C			CN1CCc2sc(NC(=O)COc3cc(C(=O)O)cc4cc(Cl)cc(Cl)c34)nc2C1 [Example 132, 5,7-Dichloro-4-[(5-methyl-4,5,6,7-tetrahydro-thiazolo[4,5-c]pyridin-2-ylcarbamoyl)-methoxy]-naphthalene-2-carboxylic acid]	
217 to 218 °C			O=C(COc1ccccc1NC(=O)COc1cc(C(=O)O)cc2cc(Cl)cc(Cl)c12)NCCO [Example 134, 5,7-Dichloro-4-({2-[(2-hydroxy-ethylcarbamoyl)-methoxy]-phenylcarbamoyl}-methoxy)-naphthalene-2-carboxylic acid]	
243 to 244 °C			O=C(COc1cc(C(=O)O)cc2cc(Cl)cc(Cl)c12)NCc1cccc(Cc2nnn[nH]2)c1 [Example 119, 5,7-Dichloro-4-{[3-(1H-tetrazol-5-ylmethyl)-benzylcarbamoyl]-methoxy}-naphthalene-2-carboxylic acid]	
247 to 248 °C			O=C(COc1cc(C(=O)O)cc2cc(Cl)cc(Cl)c12)NCc1ccc(Cc2nnn[nH]2)cc1 [Example 120, 5,7-Dichloro-4-{[4-(1H-tetrazol-5-ylmethyl)-benzylcarbamoyl]-methoxy}-naphthalene-2-carboxylic acid]	
> 250 °C			NC(=O)c1[nH]cnc1NC(=O)COc1cc(C(=O)O)cc2cc(Cl)cc(Cl)c12 [Example 136, 4-[(5-Carbamoyl-1H-imidazol-4-ylcarbamoyl)-methoxy]-5,7-dichloro-naphthalene-2-carboxylic acid]	

From patent US20120220577A1, “GLYCINE B ANTAGONISTS” (Merz Pharma GmbH & Co KgaA, priority 2009, published 2012)
